According to article PMC8457056, “Remodeling of the Fibrillation Pathway of α‐Synuclein by Interaction with Antimicrobial Peptide LL‐III” (Chemistry (Weinheim an Der Bergstrasse, Germany), 2021):

Tests used:
[1] = test system: several bacterial strains, fungi; details: ref [28]; cited from earlier work
From the text: (§1) Antimicrobial peptides (AMPs) are a particular class of disordered proteins. They form an important part of the immune system of all living organisms and are considered as the first line of defense against infections caused by pathogens.[25, 26, 27] […] The LL‐III is a posi ...

[2] = ref [28]; cited from earlier work
From the text: as §1

cancer cells = details: cited from earlier work
From the text: as §1

[3] = circular dichroism spectroscopy of LL-III; assay type: physicochemical; details: 300 μM LL-III; 20 mM sodium acetate, pH 5.0, 25 °C; minimum around 195 nm
Protocol: Figure 2 A) Binding isotherm obtained by means of steady‐state fluorescence anisotropy measurements. The experiment was performed by titrating a 4 μM solution of carboxyfluorescein‐labeled LL‐III with a solution of α‐Syn in the range 0–100 μM. The red line represents the best fit according to a 1 : 1 binding model.[29] The fluorophore was covalently attached to the N‐terminus of the peptide. B) Circular dichroism (CD) spectra of LL‐III (black solid line), α‐Syn (red solid line,) and of a mixture of LL‐III and α‐Syn (blue solid line) recorded at day 0. Shown are also spectra of the LL‐III/α‐Syn mixture recorded after 5 days (dashed blue line) and after 10 days (dotted blue lines). Here, the concentration of LL‐III was 300 μM, and the concentration of α‐Syn was 30 μM. […]
Next, by means of circular dichroism (CD) spectroscopy, we explored the effect of LLPS formation and LL‐III partitioning on the conformation of the protein. […] In support of this conclusion, we note that the spectrum of the mixture is superimposable with the sum of the spectra of LL‐III and α‐Syn, which were recorded separately (Figure S6). The time evolution of the CD spectrum of the LL‐III/α‐Syn mixture was also recorded after 5 and 10 days (Figure 2B). […]
µM) and following the anisotropy changes of the Trp residue. […] The anisotropy was evaluated at 354 nm which corresponds to the maximum of emission of the free peptide. […]

NH2-VNWKKIL GKIIKVVK -CONH2 [LL‐III]
activity against several bacterial strains, fungi [1]: remarkable activity | cytotoxicity [2]: moderate cytotoxicity | cellular localization (cancer cells; ref [22]): localizing mainly in the nucleolus and in granules | translocation across plasma membrane (cancer cells; ref [22]): able to translocate across the plasma membrane of cancer cells | activity against cancer cells (cancer cells; ref [28]): remarkable activity | conformation (CD) [3]: random‐coiled conformation in solution
